What was measured:
HSF1 = assay: Immunoblotting of HSF1 phosphorylation in fibroblasts; format: cell-based, human; settings: insulin added to normal fibroblasts; FIG. 2A
AKT = assay: Immunoblotting of AKT phosphorylation in fibroblasts; format: cell-based, human; settings: treatment with insulin; FIG. 2A
[1] = test system: fibroblasts from patients; assay: Cell viability measured by XTT labeling; format: cell-based, human; settings: 48 h treatment, increasing doses; compared with PI3K or mTOR inhibitors; FIG. 3A, 3B
Protocol: (§1) FIG. 3 Cell viability measured by XTT labeling after 48 h of treatment by 10 μM LY294002 or by increasing doses of Triptolide (A), by 4 ng/ml Rapamycin (B) or increasing doses of Kribb11. For each experiment: control 1 (white bar), control 2 (hatched bar), patient B (grey bar), patient A (black bar). n=3. O.D.=optical density. (C) Number of cells after 48 h treatment for patient A. (D) Cell proliferation measured by incorporation of BrdU. O.D.=optical density. (E) Fibroblasts apoptosis of patients and healthy donors measured by a cell death detection ELISA kit, after 24 h treatment with 100 ng/ml rapamycin, 10 μM LY294002, 3 μM Kribb11 or 10 nM Triptolide. 1 μM of staurosporine was used as an inducer of apoptosis and as positive control of the experiment, n=3. O.D.=optical density. *p<0.05, **p<0.01, ***p<0.005.

patient A fibroblasts [2] = assay: Number of cells after 48 h treatment; format: cell-based, human; settings: compared with PI3K or mTOR inhibitors, FIG. 3C
Protocol: as §1

[3] = test system: fibroblasts from patients; assay: Cell proliferation measured by incorporation of BrdU; format: cell-based, human; settings: FIG. 3D
Protocol: as §1

patient A fibroblasts [4] = assay: Quantitative PCR of 74 genes known to be regulated by HSF1; format: cell-based, human; settings: two independent experiments, FIG. 2D
Description: (D) Quantitative PCR analysis of the expression of 74 genes belonging to a cancer-related gene signature in patient A fibroblasts after treatment with LY294002. A code with different patterns is used to illustrate the intensity of the increase (gradient of grey) or decrease (shading pattern) of gene expression compared to untreated cells;
The Inventors have further investigated whether the PI3K/AKT/mTOR pathway is directly responsible for the activation of HSF1 in the fibroblasts of patients. The induction of PI3K/AKT activating pathway by adding insulin to normal fibroblasts is well known. […] To test this hypothesis, the expression of 74 known genes to be regulated by HSF1 have been determined after treatment with the PI3K inhibitor (FIG. 2D). In two independent experiments, the expression of 47 genes is inhibited while the expression of 11 genes is increased. The results are variable for 12 other genes (increase and decrease). […] Thus, a large part of a HSF1-dependent gene signature can be inhibited by the blocking of PI3K and thus confirms the link between these two pathways in the syndrome of segmental hypertrophy PIK3CA dependent.

[5] = test system: fibroblasts of patients and healthy donors; assay: Fibroblast apoptosis measured by cell death detection ELISA kit; format: cell-based; settings: 24 h treatment; 3 μM Kribb11 or 10 nM Triptolide; FIG. 3E
Protocol: as §1

insulin
phosphorylation of HSF1 (HSF1): induction of the phosphorylation of HSF1 | phosphorylation of AKT (AKT): induces the phosphorylation of AKT

CNc1ccc([N+](=O)[O-])c(Nc2ccc3[nH]ncc3c2)n1 [Kribb11]
cell growth (cell viability, XTT) [1]: reduction in cell growth | number of total cells (patient A fibroblasts [2]): reduction | increase in the % of cells entering the S phase [3]: completely blocked

O=c1cc(N2CCOCC2)oc2c(-c3ccccc3)cccc12 [LY294002]
number of HSF1-regulated genes whose expression is increased (patient A fibroblasts [4]): 11 genes | number of HSF1-regulated genes whose expression is inhibited (patient A fibroblasts [4]): 47 genes | number of HSF1-regulated genes with variable results (increase and decrease) (patient A fibroblasts [4]): 12 genes

CC(C)[C@]12O[C@H]1[C@@H]1O[C@]13[C@]1(O[C@H]1C[C@H]1C4=C(CC[C@@]13C)C(=O)OC4)[C@@H]2O [Triptolide]
cell growth (cell viability, XTT) [1]: reduction in cell growth | number of total cells (patient A fibroblasts [2]): reduction | cell mortality (apoptosis) [5]: not associated with an increase in cell mortality
